# In ChEMBL document CHEMBL1201862, “PubChem BioAssay data set” (2004):
# Active and inactive are the calls of the source.
# Experiments:
# cells [1] = format: functional, cell-based
# cells [2] = format: functional, cell-based; remark: listed apart in the source
# [3] = target: G-protein coupled receptor 55 (Homo sapiens, UniProt Q9Y2T6); assay: GPR55 antagonists blocking LPI-driven arrestin recruitment, primary screen, imaging, U2OS, beta-arrestin-GFP, LPI agonist (AID 2013); format: functional;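 note: antagonist potency measured as reduced agonist-driven arrestin aggregation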
# Sequence of G-protein coupled receptor 55 (Q9Y2T6 whole entry): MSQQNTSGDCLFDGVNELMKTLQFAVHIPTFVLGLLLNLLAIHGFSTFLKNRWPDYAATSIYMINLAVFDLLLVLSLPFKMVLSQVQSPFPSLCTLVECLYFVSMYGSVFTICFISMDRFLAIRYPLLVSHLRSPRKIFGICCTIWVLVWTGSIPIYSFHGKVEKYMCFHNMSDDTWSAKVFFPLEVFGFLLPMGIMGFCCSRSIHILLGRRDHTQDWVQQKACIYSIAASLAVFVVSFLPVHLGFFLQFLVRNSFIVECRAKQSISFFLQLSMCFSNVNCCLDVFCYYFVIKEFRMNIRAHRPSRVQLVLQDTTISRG
# [4] = target: T1, Rac GTPase-activating protein 1 (Homo sapiens, UniProt Q9H0H5); assay: MgcRacGAP GTPase-activating activity inhibitors, confirmation, biochemical, ADP Hunter fluorescence, primary and confirmatory (AID 624330); format: functional
# T1 sequence (Q9H0H5 whole entry): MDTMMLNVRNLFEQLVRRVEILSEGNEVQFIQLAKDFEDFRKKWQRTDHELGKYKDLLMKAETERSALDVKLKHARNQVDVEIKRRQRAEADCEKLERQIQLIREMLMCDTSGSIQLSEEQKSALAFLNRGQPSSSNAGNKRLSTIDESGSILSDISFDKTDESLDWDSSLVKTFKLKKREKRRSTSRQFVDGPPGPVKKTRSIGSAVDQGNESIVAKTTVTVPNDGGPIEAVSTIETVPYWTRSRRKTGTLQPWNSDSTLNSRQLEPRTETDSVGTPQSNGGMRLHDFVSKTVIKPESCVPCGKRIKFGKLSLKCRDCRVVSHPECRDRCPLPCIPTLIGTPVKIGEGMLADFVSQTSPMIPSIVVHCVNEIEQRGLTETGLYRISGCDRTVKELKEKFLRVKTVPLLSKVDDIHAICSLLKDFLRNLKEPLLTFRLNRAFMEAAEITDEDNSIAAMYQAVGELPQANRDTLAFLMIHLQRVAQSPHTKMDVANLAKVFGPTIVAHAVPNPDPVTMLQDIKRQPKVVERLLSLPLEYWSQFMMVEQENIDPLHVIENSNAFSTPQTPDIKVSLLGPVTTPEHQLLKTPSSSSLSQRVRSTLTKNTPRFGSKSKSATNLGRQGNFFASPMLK
# [5] = target: NAD-dependent protein deacylase sirtuin-5, mitochondrial (Homo sapiens, UniProt Q9NXA8); assay: SIRT5 desuccinylase inhibitors, dose response, biochemical, fluorescence imaging, cherry-pick, set 5 (AID 720591);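 note: desuccinylation of succinyl peptide AMC substrate read as fluorescence after trypsin release; potency of inhibitors that lower fluorescence and may act on trypsin instead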
# Sequence of NAD-dependent protein deacylase sirtuin-5, mitochondrial (Q9NXA8 whole entry): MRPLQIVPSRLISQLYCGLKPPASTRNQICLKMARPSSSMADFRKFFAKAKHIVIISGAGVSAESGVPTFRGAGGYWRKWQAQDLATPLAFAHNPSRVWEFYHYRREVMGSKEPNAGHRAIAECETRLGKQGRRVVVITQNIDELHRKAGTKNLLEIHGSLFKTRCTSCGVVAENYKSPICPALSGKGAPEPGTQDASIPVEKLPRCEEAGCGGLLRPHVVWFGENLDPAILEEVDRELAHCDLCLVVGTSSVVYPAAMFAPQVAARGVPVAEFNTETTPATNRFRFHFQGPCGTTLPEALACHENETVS
# Protein Wnt-3a = Protein Wnt-3a (Mus musculus, UniProt P27467); assay: Wnt3a-driven reporter signaling inhibition, dose response, selectivity assay for Gli-SUFU antagonist project, Wnt-LIGHT cells, luminescence (AID 651570); format: functional; settings: read-out: IC50_Mean;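 note: Wnt-LIGHT reporter cells stimulated with conditioned medium from Wnt3a-producing cells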
# Sequence of Protein Wnt-3a (P27467 whole entry): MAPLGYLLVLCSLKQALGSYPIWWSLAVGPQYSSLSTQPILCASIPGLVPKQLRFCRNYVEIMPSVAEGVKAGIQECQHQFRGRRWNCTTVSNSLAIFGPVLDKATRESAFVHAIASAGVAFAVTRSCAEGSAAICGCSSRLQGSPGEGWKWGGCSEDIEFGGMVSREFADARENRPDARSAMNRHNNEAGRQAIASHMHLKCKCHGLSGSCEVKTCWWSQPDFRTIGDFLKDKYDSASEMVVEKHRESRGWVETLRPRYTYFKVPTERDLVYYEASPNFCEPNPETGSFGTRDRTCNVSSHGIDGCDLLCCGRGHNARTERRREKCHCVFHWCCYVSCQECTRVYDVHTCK
# [6] = Shn3 3'UTR reporter inhibitors, dose response, cell-based, Clone20 osteoblasts, firefly luciferase, cherry-picked (AID 624132); format: functional;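 note: firefly luciferase luminescence from reporter carrying the Shn3 3'UTR in osteoblasts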
# [7] = HepG2 cell cytotoxicity, dose response, cytotoxicity control for Shn3 inhibitor project, CellTiter-Glo, cherry-picked (AID 624134); format: functional, cell-based
# [8] = control 3'UTR Renilla luciferase suppression, dose response, counter-screen for Shn3 inhibitor project, cell-based, Clone20-Shn3RL, cherry-picked (AID 624133); format: functional
# Coagulation factor XII = target: T2, Coagulation factor XII (Homo sapiens, UniProt P00748); format: functional;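 note: activated factor XIIa alpha cleaving a fluorogenic AMC peptide substrate; inhibitor potency from loss of enzyme activity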
# T2 sequence (P00748 whole entry): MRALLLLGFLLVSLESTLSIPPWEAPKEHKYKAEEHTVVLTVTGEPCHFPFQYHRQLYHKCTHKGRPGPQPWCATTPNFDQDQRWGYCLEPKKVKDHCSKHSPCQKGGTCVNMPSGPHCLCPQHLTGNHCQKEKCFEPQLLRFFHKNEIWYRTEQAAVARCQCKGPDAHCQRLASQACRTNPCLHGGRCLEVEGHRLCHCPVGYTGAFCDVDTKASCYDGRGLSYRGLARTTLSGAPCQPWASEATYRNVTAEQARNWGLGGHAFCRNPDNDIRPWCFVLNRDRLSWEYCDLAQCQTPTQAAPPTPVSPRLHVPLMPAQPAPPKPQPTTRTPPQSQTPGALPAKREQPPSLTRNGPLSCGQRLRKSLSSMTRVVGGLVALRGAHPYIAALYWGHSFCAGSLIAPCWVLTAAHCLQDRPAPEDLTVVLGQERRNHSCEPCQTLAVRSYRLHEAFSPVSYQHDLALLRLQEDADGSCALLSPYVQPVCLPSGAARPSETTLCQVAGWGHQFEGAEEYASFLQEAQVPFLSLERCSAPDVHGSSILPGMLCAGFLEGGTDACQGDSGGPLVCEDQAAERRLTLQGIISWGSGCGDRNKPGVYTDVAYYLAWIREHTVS
# Prothrombin = Prothrombin (Homo sapiens, UniProt P00734); assay: Thrombin 1536 HTS Dose Response Confirmation. [Related pubchem assays: 1046 (Thrombin 1536 HTS; hits were confirmed in this assay)]; format: functional
# [9] = target: T3, Type-1 angiotensin II receptor (Homo sapiens, UniProt P30556); assay: AT1 receptor antagonists, dose response, selectivity assay for APJ receptor antagonist project, cell-based, uHTS hits (AID 463214); format: functional;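 note: antagonist potency against angiotensin II stimulated AT1 response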
# T3 sequence (P30556 whole entry): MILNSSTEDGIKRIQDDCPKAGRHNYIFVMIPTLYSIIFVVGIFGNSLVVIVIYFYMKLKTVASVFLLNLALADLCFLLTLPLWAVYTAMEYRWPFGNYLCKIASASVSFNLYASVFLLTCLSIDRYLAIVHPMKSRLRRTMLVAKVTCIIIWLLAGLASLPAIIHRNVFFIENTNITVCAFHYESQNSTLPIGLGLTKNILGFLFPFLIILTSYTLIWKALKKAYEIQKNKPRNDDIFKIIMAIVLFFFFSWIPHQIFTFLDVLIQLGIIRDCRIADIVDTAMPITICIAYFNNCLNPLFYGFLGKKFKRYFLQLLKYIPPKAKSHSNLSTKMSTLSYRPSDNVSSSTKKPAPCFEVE
# Beta-galactosidase = Beta-galactosidase (Escherichia coli, UniProt Q8VNN2); assay: PubChem AID 485352; format: functional
# Sequence of Beta-galactosidase (Q8VNN2 whole entry): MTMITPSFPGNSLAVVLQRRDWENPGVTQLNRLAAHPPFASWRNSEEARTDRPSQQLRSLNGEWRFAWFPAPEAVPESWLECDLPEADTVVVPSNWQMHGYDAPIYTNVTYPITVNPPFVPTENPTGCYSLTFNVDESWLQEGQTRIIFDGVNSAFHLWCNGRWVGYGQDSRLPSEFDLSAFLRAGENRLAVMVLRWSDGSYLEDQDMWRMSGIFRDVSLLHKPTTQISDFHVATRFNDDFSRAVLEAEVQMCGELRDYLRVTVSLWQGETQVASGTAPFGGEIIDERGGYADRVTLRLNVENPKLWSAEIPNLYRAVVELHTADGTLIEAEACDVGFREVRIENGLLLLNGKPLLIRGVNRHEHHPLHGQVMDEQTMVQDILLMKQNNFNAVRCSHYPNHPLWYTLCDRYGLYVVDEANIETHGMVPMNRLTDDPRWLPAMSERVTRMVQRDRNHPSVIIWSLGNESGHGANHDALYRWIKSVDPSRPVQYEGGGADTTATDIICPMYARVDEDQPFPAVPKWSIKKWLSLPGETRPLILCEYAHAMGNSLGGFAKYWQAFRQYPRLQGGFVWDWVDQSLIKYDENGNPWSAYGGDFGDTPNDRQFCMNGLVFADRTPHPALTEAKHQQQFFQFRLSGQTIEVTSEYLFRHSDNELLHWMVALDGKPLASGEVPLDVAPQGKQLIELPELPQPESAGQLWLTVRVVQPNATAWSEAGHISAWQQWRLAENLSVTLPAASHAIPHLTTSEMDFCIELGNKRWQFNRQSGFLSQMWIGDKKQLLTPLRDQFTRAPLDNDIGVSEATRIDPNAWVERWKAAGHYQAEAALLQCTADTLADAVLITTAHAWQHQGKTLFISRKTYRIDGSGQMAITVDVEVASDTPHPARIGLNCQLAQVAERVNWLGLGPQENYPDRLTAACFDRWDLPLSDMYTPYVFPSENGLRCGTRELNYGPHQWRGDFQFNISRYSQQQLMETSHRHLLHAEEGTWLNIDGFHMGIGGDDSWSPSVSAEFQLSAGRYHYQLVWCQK
# Phospholipase A2 = Phospholipase A2 (Homo sapiens, UniProt P04054); format: functional;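 note: confirmatory dose-response counterscreen on phospholipase A2, testing hits that came from an ultra-high-throughput screen for ATG4B inhibitors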
# Sequence of Phospholipase A2 (P04054 whole entry): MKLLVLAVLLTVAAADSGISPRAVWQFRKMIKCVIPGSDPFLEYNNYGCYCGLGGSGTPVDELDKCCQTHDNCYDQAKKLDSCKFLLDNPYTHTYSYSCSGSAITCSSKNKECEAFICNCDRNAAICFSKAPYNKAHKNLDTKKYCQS
# Cysteine protease ATG4B = target: T4, Cysteine protease ATG4B (Homo sapiens, UniProt Q9Y4P1); format: functional;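 note: Fluorescence-based dose-response confirmation assay measuring inhibition of ATG4B activity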
# T4 sequence (Q9Y4P1 whole entry): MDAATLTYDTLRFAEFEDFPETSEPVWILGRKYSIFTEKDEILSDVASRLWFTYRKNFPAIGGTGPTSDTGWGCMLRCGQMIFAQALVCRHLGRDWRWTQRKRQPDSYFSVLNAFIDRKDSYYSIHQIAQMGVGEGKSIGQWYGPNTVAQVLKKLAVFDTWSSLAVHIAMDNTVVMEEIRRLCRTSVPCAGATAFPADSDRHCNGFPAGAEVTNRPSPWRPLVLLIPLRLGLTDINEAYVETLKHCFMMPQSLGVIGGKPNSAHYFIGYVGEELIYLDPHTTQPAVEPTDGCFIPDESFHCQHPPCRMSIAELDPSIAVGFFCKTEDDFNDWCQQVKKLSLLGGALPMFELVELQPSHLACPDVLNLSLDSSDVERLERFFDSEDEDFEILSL
# [10] = inhibitors of clade B AD8 Env fusion, dose response, cell-based, cherry-pick (AID 652062); format: functional;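 note: luciferase signal from cell-cell fusion driven by HIV-1 clade B AD8 Env; potency is for inhibitors of fusion seen as a drop in luminescence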
smiles,measurement,setting,value
O=C(O)/C=C/C(=O)NCc1csc2ccccc12,IC50,cells [1],> 29.9 µM (inactive)
same,EC50,cells [2],> 29.9 µM (inactive)
CC(C)C[C@H](NC(=O)c1[nH]cnc1C(=O)NCc1ccc(CNC(=O)OC(C)(C)C)cc1)C(=O)OCc1ccccc1,IC50,[3],2.3 µM (active)
COc1ccccc1-c1c[nH]nc1-c1ccc(O)cc1O,IC50,[4],42.4 µM (active)
same,AC50,[5],21.6 µM (active)
Cc1c(C(C)C)c(=O)n(-c2ccc(S(=O)(=O)NC3CCCCC3)cc2)n1C,IC50,Protein Wnt-3a,2.91 µM (active)
same,AC50,[6],1.06 µM (active)
same,AC50,[7],3.93 µM (active)
same,AC50,[8],1.76 µM (active)
Cc1cc(C(=O)Nc2nc(C)c(C(=O)N(C)C)s2)ccc1[N+](=O)[O-],IC50,Coagulation factor XII,> 50 µM (inactive)
same,IC50,Prothrombin,> 50 µM (not active)
CC1=NN(C(N)=S)C(=O)C1N=Nc1ccc([N+](=O)[O-])cc1 (configuration not stated),IC50,[9],35.3 µM (not active)
same,EC50,Beta-galactosidase,> 40 µM (inactive)
CN(C)/C=C/c1c(C#N)c(=O)ncn1Cc1ccccc1,IC50,Coagulation factor XII,> 50 µM (inactive)
Cc1c(-c2ccc(OCCN3CCOCC3)cc2)c(=O)oc2ccc3ccccc3c12,AC50,[5],> 30 µM (inactive)
FC(F)(F)Oc1ccc(NC(S)=NCc2ccccc2)cc1,IC50,Phospholipase A2,12.2 µM (active)
same,IC50,Cysteine protease ATG4B,25.4 µM (inactive)
O=C(c1cccc(S(=O)(=O)N2CCN(c3ccccc3)CC2)c1)N1CCCC(C(F)(F)F)C1 (configuration not stated),IC50,Protein Wnt-3a,41.8 µM (inactive)
same,AC50,[6],2.68 µM (active)
same,AC50,[10],6.01 µM (active)
same,AC50,[7],37.3 µM (active)
same,AC50,[8],0.475 µM (active)
